The target of the experiment is human metabotropic Glutamate 4 receptor (mGluR4) (Homo sapiens (Human), UniProt Q14833). Kind of experiment: Assay A: in vitro testing of mGluR4 potency (glutamate-induced cAMP lowering, HTRF cAMP). It counts as cell-based. The note with it: HEK293 cells overexpressing human mGluR4; 10 uM L-glutamic acid, 1 uM forskolin; compounds of the present invention. In short, it runs like this: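 HEK293 cells overexpressing human mGluR4 treated 30 min at room temperature with compound plus 10 uM L-glutamate, 1 uM forskolin, 0.5 mM IBMX, 0.1% BSA, 1% DMSO. cAMP read by HTRF (665/615 nm ratio), normalized to glutamate (100%) and no-glutamate (0%) controls as percent of control.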
Sequence of human metabotropic Glutamate 4 receptor (mGluR4) (Q14833 33-912): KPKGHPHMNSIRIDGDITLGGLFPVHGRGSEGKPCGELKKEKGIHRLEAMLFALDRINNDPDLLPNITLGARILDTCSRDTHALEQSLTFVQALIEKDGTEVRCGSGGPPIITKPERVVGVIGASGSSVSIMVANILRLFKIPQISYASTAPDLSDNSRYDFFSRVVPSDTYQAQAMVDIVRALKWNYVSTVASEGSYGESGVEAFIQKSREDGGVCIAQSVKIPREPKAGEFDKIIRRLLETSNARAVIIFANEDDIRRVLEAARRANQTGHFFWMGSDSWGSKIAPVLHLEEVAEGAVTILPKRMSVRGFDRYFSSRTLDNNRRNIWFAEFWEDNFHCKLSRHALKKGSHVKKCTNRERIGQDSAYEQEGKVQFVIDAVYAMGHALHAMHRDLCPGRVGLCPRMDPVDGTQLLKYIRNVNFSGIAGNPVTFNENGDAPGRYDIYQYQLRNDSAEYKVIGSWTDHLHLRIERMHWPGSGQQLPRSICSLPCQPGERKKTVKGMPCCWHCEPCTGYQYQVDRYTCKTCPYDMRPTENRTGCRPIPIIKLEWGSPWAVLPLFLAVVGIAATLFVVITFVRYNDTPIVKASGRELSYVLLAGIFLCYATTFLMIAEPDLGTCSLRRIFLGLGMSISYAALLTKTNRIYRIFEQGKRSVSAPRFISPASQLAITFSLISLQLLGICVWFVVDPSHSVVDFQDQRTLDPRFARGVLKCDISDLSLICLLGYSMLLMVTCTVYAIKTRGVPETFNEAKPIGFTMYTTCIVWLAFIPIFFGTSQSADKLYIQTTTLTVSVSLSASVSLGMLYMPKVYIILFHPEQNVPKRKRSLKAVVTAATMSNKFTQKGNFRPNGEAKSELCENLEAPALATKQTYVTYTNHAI
In general terms: In TR-FRET formats the signal depends on donor and acceptor labels being close together.
In the case of `COCCn1c([C@@H](NC(=O)c2cnc(C(F)F)cn2)[C@H]2CCOC2)nc2cc(F)ccc21` [Example 48, 5-(difluoromethyl)-N-[(S)-[5-fluoro-1-(2-methoxyethyl)-1H-1,3-benzodiazol-2-yl][(3R)-oxolaN-3-yl]methyl]pyrazine-2-carboxamide], the IC50 (as a rule, the midpoint of a concentration-inhibition curve) amounted to 21 nM. In other words, the double-digit nanomolar range.

`CCn1c([C@@H](NC(=O)c2cnc(C)cn2)C2CC2)nc2cc(OC(F)F)ccc21` [Example 49, N-[(S)-cyclopropyl[5-(difluoromethoxy)-1-ethyl-1H-1,3-benzodiazol-2-yl]methyl]-5-methylpyrazine-2-carboxamide]: the half-maximal inhibitory concentration (IC50) amounted to 7 nM. On to `CCn1c([C@@H](NC(=O)c2cnc(C)cn2)C(C)(C)O)nc2cc(F)c(F)cc21` [Example 50, N-[(1R)-1-(1-ethyl-5,6-difluoro-1H-1,3-benzodiazol-2-yl)-2-hydroxy-2-methylpropyl]-5-methylpyrazine-2-carboxamide], for which the half-maximal inhibitory concentration (IC50) was 24 nM. With `Cc1cnc(C(=O)N[C@H](c2nc3cc(F)ccc3n2C)C2CC2)cn1` [Example 51, N-[(S)-cyclopropyl(5-fluoro-1-methyl-1H-1,3-benzodiazol-2-yl)methyl]-5-methylpyrazine-2-carboxamide] the figure was 28 nM. With `Cc1cnc(C(=O)N[C@H](c2nc3cc(Br)c(F)cc3n2C)C2CC2)cn1` [Example 52, N-[(S)-(5-bromo-6-fluoro-1-methyl-1H-1,3-benzodiazol-2-yl) (cyclopropyl)methyl]-5-methylpyrazine-2-carboxamide] the figure was 5 nM; with `COCCn1c([C@@H](NC(=O)c2cnc(C(F)F)cn2)[C@H]2CCCO2)nc2cc(OC(F)(F)F)ccc21` [Example 53, 5-(difluoromethyl)-N-[(R)-[1-(2-methoxyethyl)-5-(trifluoromethoxy)-1H-1,3-benzodiazol-2-yl][(2R)-oxolaN-2-yl]methyl]pyrazine-2-carboxamide], 6 nM.

In the case of `COCCn1c([C@@H](NC(=O)c2cnc(C)cn2)C2CC2)nc2c(C)c(Br)ccc21` [Example 54, N-[(S)-[5-bromo-1-(2-methoxyethyl)-4-methyl-1H-1,3-benzodiazol-2-yl](cyclopropyl)methyl]-5-methylpyrazine-2-carboxamide], 1 nM corresponded to half-maximal inhibition (IC50). The value for `Cn1c([C@@H](NC(=O)c2cnc(C(F)F)cn2)C2CC2)nc2cc(Cl)ccc21` [Example 55, N-[(S)-(5-chloro-1-methyl-1H-1,3-benzodiazol-2-yl)(cyclopropyl)methyl]-5-(difluoromethyl)pyrazine-2-carboxamide] was 7 nM; that for `CCn1c([C@@H](NC(=O)c2cnc(C(F)F)cn2)C(C)(C)O)nc2cc(F)c(F)cc21` [Example 57, 5-(difluoromethyl)-N-[(1R)-1-(1-ethyl-5,6-difluoro-1H-1,3-benzodiazol-2-y1)-2-hydroxy-2-methylpropyl]pyrazine-2-carboxamide] was 19 nM. The value for `COCCn1c([C@@H](NC(=O)c2cnc(C)cn2)[C@@H]2CCCO2)nc2cc(OC(F)(F)F)ccc21` [Example 58, N-[(R)-[1-(2-methoxyethyl)-5-(trifluoromethoxy)-1H-1,3-benzodiazol-2-yl][(2S)-oxolan-2-yl]methyl]-5-methylpyrazine-2-carboxamide] was 4 nM; that for `Cc1cnc(C(=O)N[C@H](c2nc3cc(C(F)(F)F)ccc3n2C)[C@@H](C)OC(F)F)cn1` [Example 61, N-[(1R,2R)-2-(difluoromethoxy)-1-[1-methyl-5-(trifluoromethyl)-1H-1,3-benzodiazol-2-yl]propyl]-5-methylpyrazine-2-carboxamide] was 8 nM; that for `COCCn1c([C@@H](NC(=O)c2cnc(C)cn2)[C@H]2CCOC2)nc2cc(OC(F)(F)F)ccc21` [Example 62, N-[(S)-[1-(2-methoxyethyl)-5-(trifluoromethoxy)-1H-1,3-benzodiazol-2-yl][(3R)-oxolan-3-yl]methyl]-5-methylpyrazine-2-carboxamide] was 9 nM. With `Cc1cnc(C(=O)N[C@H](c2nc3ccc(C(F)(F)F)cc3n2C)C2CC2)cn1` [Example 63, N-[(S)-cyclopropyl[1-methyl-6-(trifluoromethyl)-1H-1,3-benzodiazol-2-yl]methyl]-5-methylpyrazine-2-carboxamide], it took 14 nM to reach half-maximal inhibition (IC50). This IC50 lies about 1.6-fold higher than the previous one. With `Cc1cnc(C(=O)N[C@H](c2nc3cc(F)ccc3n2C)C(C)C)cn1` [Example 64, N-[(1S)-1-(5-fluoro-1-methyl-1H-1,3-benzodiazol-2-yl)-2-methylpropyl]-5-methylpyrazine-2-carboxamide] the figure was 19 nM. With `CCn1c([C@@H](NC(=O)c2cnc(C(F)F)cn2)C(C)(C)O)nc2cc(F)ccc21` [Example 65, 5-(difluoromethyl)-N-[(1R)-1-(1-ethyl-5-fluoro-1H-1,3-benzodiazol-2-yl)-2-hydroxy-2-methylpropyl]pyrazine-2-carboxamide] the figure was 16 nM; with `COCCn1c([C@@H](NC(=O)c2cnc(C)cn2)C2CC2)nc2cc(OC(F)F)c(F)cc21` [Example 67, N-[(S)-cyclopropyl[5-(difluoromethoxy)-6-fluoro-1-(2-methoxyethyl)-1H-1,3-benzodiazol-2-yl]methyl]-5-methylpyrazine-2-carboxamide], 10 nM; with `Cc1cnc(C(=O)N[C@H](c2nc3cc(Cl)ccc3n2C)[C@@H]2CCCO2)cn1` [Example 68, N-[(R)-(5-chloro-1-methyl-1H-1,3-benzodiazol-2-yl)[(2S)-oxolan-2-yl]methyl]-5-methylpyrazine-2-carboxamide], 19 nM. With `Cc1cnc(C(=O)N[C@H](c2nc3cc(F)ccc3n2CC(F)F)[C@@H](C)OC(F)F)cn1` [Example 69, N-[(1R,2R)-1-[1-(2,2-difluoroethyl)-5-fluoro-1H-1,3-benzodiazol-2-y1]-2-(difluoromethoxy)propyl]-5-methylpyrazine-2-carboxamide] the figure was 18 nM.

Take `COCCn1c(C(NC(=O)c2cnc(C)cn2)C2CCCO2)nc2cc(C(F)(F)F)ccc21` (stereo not drawn) [Example 71-3, N-{[1-(2-methoxyethyl)-5-(trifluoromethyl)-1H-1,3-benzodiazol-2-yl](oxolan-2-yl)methyl}-5-methylpyrazine-2-carboxamide]: the IC50 amounted to 62 nM. `Cc1cnc(C(=O)N[C@H](c2nc3cc(Cl)ccc3n2C)C(C)C)cn1` [Example 72, N-[(1S)-1-(5-chloro-1-methyl-1H-1,3-benzodiazol-2-yl)-2-methylpropyl]-5-methylpyrazine-2-carboxamide] displayed an IC50 of 8 nM.

Take `Cc1cnc(C(=O)N[C@H](c2nc3cc(F)ccc3n2C2CC2)C2CC2)cn1` [Example 73, N-[(S)-cyclopropyl (1-cyclopropyl-5-fluoro-1H-1,3-benzodiazol-2-yl)methyl]-5-methylpyrazine-2-carboxamide]: the IC50 was determined as 18 nM. The value for `Cc1cnc(C(=O)N[C@H](c2nc3cc(OC(F)(F)F)ccc3n2C)C2CC2)cn1` [Example 74, N-[(S)-cyclopropyl[1-methyl-5-(trifluoromethoxy)-1H-1,3-benzodiazol-2-yl]methyl]-5-methylpyrazine-2-carboxamide] was 6 nM. With `Cc1cnc(C(=O)N[C@H](c2nc3cc(Cl)ccc3n2C)[C@@H]2CC2(F)F)cn1` [Example 76, N-[(S)-(5-chloro-1-methyl-1H-1,3-benzodiazol-2-yl)[(1S)-2,2-difluorocyclopropyl]methyl]-5-methylpyrazine-2-carboxamide] the figure was 12 nM; with `COCCn1c([C@@H](NC(=O)c2cnc(C(F)F)cn2)[C@H]2CCOC2)nc2cc(OC(F)(F)F)ccc21` [Example 77, 5-(difluoromethyl)-N-[(S)-[1-(2-methoxyethyl)-5-(trifluoromethoxy)-1H-1,3-benzodiazol-2-yl][(3R)-oxolan-3-yl]methyl]pyrazine-2-carboxamide], 12 nM; with `Cc1cnc(C(=O)N[C@H](c2nc3cc(OC(F)(F)F)ccc3n2C)[C@@H]2CCCOC2)cn1` [Example 78, 5-methyl-N-[(S)-[1-methyl-5-(trifluoromethoxy)-1H-1,3-benzodiazol-2-yl][(3S)-oxan-3-yl]methyl]pyrazine-2-carboxamide], 13 nM. The value for `COCCn1c([C@@H](NC(=O)c2cnc(C)cn2)[C@@H](C)OC(F)F)nc2cc(OC(F)F)ccc21` [Example 79, N-[(1R,2R)-2-(difluoromethoxy)-1-[5-(difluoromethoxy)-1-(2-methoxyethyl)-1H-1,3-benzodiazol-2-yl]propyl]-5-methylpyrazine-2-carboxamide] was 19 nM; that for `CO[C@H](C)[C@H](NC(=O)c1cnc(C(F)F)cn1)c1nc2cc(OC(F)F)ccc2n1C` [Example 80, N-[(1R,2R)-1-[5-(difluoromethoxy)-1-methyl-1H-1,3-benzodiazol-2-yl]-2-methoxypropyl]-5-(difluoromethyl)pyrazine-2-carboxamide] was 29 nM. Regarding `CCn1c([C@@H](NC(=O)c2cnc(C)cn2)C(C)(C)O)nc2cc(Cl)ccc21` [Example 81, N-[(1R)-1-(5-chloro-1-ethyl-1H-1,3-benzodiazol-2-yl)-2-hydroxy-2-methylpropyl]-5-methylpyrazine-2-carboxamide], the IC50 was 14 nM. Compared with the last molecule, the IC50 is about 2.1-fold lower. With `Cc1cnc(C(=O)N[C@H](c2nc3cc(C(F)(F)F)ccc3n2C)[C@H]2CCCOC2)cn1` [Example 82, 5-methyl-N-[(S)-[1-methyl-5-(trifluoromethyl)-1H-1,3-benzodiazol-2-yl][(3R)-oxan-3-yl]methyl]pyrazine-2-carboxamide] the figure was 13 nM. The value for `CC(C)(O)[C@H](NC(=O)c1cnc(C(F)F)cn1)c1nc2cc(F)ccc2n1CC(F)F` [Example 83, N-[(1R)-1-[1-(2,2-difluoroethyl)-5-fluoro-1H-1,3-benzodiazol-2-yl]-2-hydroxy-2-methylpropyl]-5-(difluoromethyl)pyrazine-2-carboxamide] was 38 nM.
